According to patent publication US20090011424A1, “Cancer-suppressing agents” (Tokyo Medical and Dental University, priority 2005, published 2009):

Experiments:
[1] = system: IMR32 cells; experiment: soft agar colony formation after gene introduction; type: cell-based, human; details: 3 weeks, 500 μg/ml G418, vs empty vector
Description: (§1) Adherence to solid matter has been known as an example of a difference between properties of normal cells and those of cancer cells under culture conditions. In other words, it is necessary for normal cells to adhere to solid matter for cell proliferation (anchorage dependence). When normal cells are cultured in a soft agar medium (about 0.33%), they can not proliferate while floating in such medium. However, many cancer cells lack anchorage dependence so that they can proliferate in a soft agar medium. Since floating cancer cells cannot move in a soft agar medium, a single cancer cell is repeatedly divided such that the divided cells form a colony in 1 to 3 weeks time. Since there is a correlation between the ability of the cell to form a soft agar colony and the implanted tumor forming ability, the degree of such ability has been widely used as an index of malignancy (Shin, S. I., et al., Proc. Natl. Acad. Sci. USA 72, 4435, 1975). A full-length NR1I2 cDNA was inserted into pCMV-Tag3 vector (Stratagene) in which an myc peptide can be added to the amino terminal of an inserted gene (PCMV-Tag3-NR1I2). In addition, we already have discovered that a fusion product of a herpes-virus-derived VP16 protein and an NR1I2 protein has stronger transcriptional activity than that of an NR1I2 protein alone. […] Then, the number of colonies was counted (FIGS. 8A and 8B).

[2] = system: SMS-KAN cells; experiment: soft agar colony formation after gene introduction; type: cell-based, human; details: 3 weeks, 500 μg/ml G418, vs empty vector
Description: as §1

“NR1I2 gene: human-derived gene, nuclear receptor subfamily 1, group I, member 2 (pregnane X receptor, PXR), nucleotide sequence SEQ ID NO: 1” was tested, and the number of colonies [1] was “significantly reduced” and the number of colonies [2] was “significantly reduced”.
